Experimental data published in patent US6384058B1, “2,4,6-trisubstituted pryridines with estrogenic activity and methods for the solid phase synthesis thereof” (American Home Products Corporation, priority 1997, dated 2002).

Columns and labels:
[1] = target: T1, human estrogen receptor (Homo sapiens, UniProt P03372); test: Estrogen Receptor Assay: 2×VIT ERE Transfection Assay (luciferase reporter in CHO cells); assay type: cell-based; details: 1 μM compound alone, 24 h, CHO cells stably transfected with human estrogen receptor, luciferase normalised to B-galactosidase, n=8
T1 construct: expressed in transfected cells; host or cells: Chinese Hamster Ovary (CHO) cells, stably transfected
T1 sequence (P03372 1-595): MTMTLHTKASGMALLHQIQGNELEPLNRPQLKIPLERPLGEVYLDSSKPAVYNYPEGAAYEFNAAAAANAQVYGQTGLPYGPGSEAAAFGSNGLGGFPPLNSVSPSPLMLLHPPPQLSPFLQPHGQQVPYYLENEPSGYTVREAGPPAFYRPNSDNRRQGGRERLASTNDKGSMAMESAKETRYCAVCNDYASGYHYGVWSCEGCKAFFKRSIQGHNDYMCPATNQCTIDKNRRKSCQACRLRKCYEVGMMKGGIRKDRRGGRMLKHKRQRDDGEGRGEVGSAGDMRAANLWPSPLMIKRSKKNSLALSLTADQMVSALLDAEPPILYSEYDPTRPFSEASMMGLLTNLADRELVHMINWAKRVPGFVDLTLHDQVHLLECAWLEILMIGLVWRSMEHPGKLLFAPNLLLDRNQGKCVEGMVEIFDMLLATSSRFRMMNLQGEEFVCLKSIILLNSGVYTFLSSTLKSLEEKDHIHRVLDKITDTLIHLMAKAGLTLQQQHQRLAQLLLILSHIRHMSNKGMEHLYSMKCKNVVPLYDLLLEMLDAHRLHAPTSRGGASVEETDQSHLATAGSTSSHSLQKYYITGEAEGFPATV
Method: Enhancement of luciferase gene expression in this model is dependent upon estrogen receptor (ER) interaction with a vitellogenin gene estrogen responsive element (ERE) capable of enhancing basal promoter activity. This is a sensitive and rapid methodology to assess estrogenic/antiestrogenic potency of compounds.
48 h prior to treatment the growth medium is replaced with DMEM lacking phenol red+10% dextran coated charcoal stripped FBS (treatment medium). Cells are plated at a density of 5000 cells/well in 96-well plates containing 200 μL of medium/well.
Calcium Phosphate Transfection: Reporter DNA (Promega plasmid pGL2 containing two tandem copies of the vitellogenin ERE in front of the minimal thymidine kinase promoter driving the luciferase gene) is combined with the B-galactosidase expression plasmid pCH110 (Pharmacia) and carrier DNA (pTZ18U) in the following ratio: 10 μg of reporter DNA, 5 μg of pCH110 DNA, 5 μg of pTZ18U, and 20 μg of DNA/1 mL of transfection solution. […] 20 μL of this mixture is added to each well of cells and remains on the cells for 16 h. […] Each treatment condition is performed on 8 wells (n=8) which are incubated for 24 h prior to luciferase assay.
Luciferase Assay: After 24 h exposure to compounds, the media is removed and each well is washed 2× with 125 μL of PBS lacking Mg++ and Ca++. After removing the PBS, 25 μL of Promega lysis buffer is added to each well and allowed to stand at room temperature for 15 min, followed by 15 min at −80 deg. C. and 15 min at 37 deg. C. 20 μL of lysate is tranferred to an opaque 96-well plate for luciferase activity evaluation and the remaining lysate (5 μL) is used for B-galactosidase activity evaluation (normalize transfection). The luciferan substrate (Promega) added is 100 μL aliquots to each well automatically by the luminometer and the light produced (relative light units) is read 10 seconds after addition. The data is logged and automatically sent to a JMP statistical program for analysis. A hard copy printout is also produced at the time of the assay.
B-galactosidase Assay: To the remaining 5 μL of lysate 45 μL of PBS is added. 50 μl of Promega B-galactosidase 2×assay buffer is added, mixed well and incubated at 37 deg. C. for 1 h. A plate containing a standard curve (0.1 to 1.5 milliunits in triplicate) is set up for each experimental run. The plates are analyzed on a Molecular Devices spectrophotometric plate reader at 410 nm. The optical densities for the unknowns are converted to milliunits of activity by mathematical extrapolation from the standard curve. Analysis of Results: The luciferase data is generated as relative light units (RLUs) accumulated during a 10 second measurement and is automatically transferred to a JMP (SAS Inc) file where background RLUs are subtracted. The B-galactosidase values are automatically imported into the file and these values are divided into the RLUs to normalize the data. The mean and standard deviation is determined from a n=8 for each treatment.

Estrogenic activity at 1 μM (% of activity of 1 nM 17B-estradiol) [1] [%]	melting point [°C]	SMILES
22	195 to 196	Oc1ccccc1-c1cc(-c2ccc3c(c2)OCO3)cc(-c2ccc3ccccc3c2)n1 [Example 4, 2-(4-Benzo[1,3]dioxol-5-yl-6-naphthalen-2-yl-pyridin-2-yl)-phenol]
10	147 to 148	Oc1ccccc1-c1cc(-c2ccc(F)c(F)c2)cc(-c2ccco2)n1 [Example 3, 2-[4-(3,4-Difluoro-phenyl)-6-furan-2-yl-pyridin-2-yl]-phenol]
6	–	Oc1ccc(F)cc1-c1cc(-c2ccc(-c3ccccc3)cc2)cc(-c2ccncc2)n1 [Example 7, 2-(4-Biphenyl-4-yl-[2,4′]bipyridinyl-6-yl)-4-fluoro-phenol]
14	146 to 148	Oc1ccccc1-c1cc(-c2ccc(F)c(F)c2)cc(-c2ccc(Cl)cc2)n1 [Example 1, 2-[6-(4-Chloro-phenyl)-4-(3,4-difluoro-phenyl)-pyridin-2-yl]-phenol]
–	165 to 167	Oc1ccccc1-c1cc(-c2ccc(F)c(F)c2)cc(-c2ccc3ccccc3c2)n1 [Example 2, 2-[4-(3,4-Difluoro-phenyl)-6-naphthalen-2-yl-pyridin-2-yl]-phenol]
36	–	Oc1cccc(-c2cc(C3CCCCC3)cc(-c3ccco3)n2)c1 [Example 10, 3-(4-Cyclohexyl-6-furan-2-yl-pyridin-2-yl)-phenol]
–	174 to 175	Oc1cccc(-c2cc(-c3ccc(-c4ccccc4)cc3)cc(-c3ccc4ccccc4c3)n2)c1 [Example 9, 3-(4-Biphenyl-4-yl-6-naphthalen-2-yl-pyridin-2-yl)-phenol]
–	187 to 188	Oc1ccc(F)cc1-c1cc(-c2ccc(-c3ccccc3)cc2)cc(-c2ccc3ccccc3c2)n1 [Example 6, 2-(4-Biphenyl-4-yl-6-naphthalen-2-yl-pyridin-2-yl)-4-fluoro-phenol]
–	120 to 121	Oc1ccccc1-c1cc(-c2ccc3c(c2)OCO3)cc(-c2ccsc2)n1 [Example 5, 2-(4-Benzo[1,3]dioxol-5-yl-6-thiophen-3-yl-pyridin-2-yl)-phenol]
